This is an account of results in paper PMC3486884 (PLoS Pathogens, 2012).

In this test the test system is influenza virus (strain A/Puerto Rico/8/34/H1N1 depicted PR8). The conditions noted are these: n=2.

Read-outs that look alike come from different tables or passages of the source.

For `O=C(Nc1ccc([N+](=O)[O-])cc1Cl)c1cc(Cl)cc(Cl)c1O` [TVB-1326], the relative infection by setting is: (0.1 µM) 1.02; (0.3 µM) 0.94; (0.9 µM) 0.90; (2.8 µM) 0.78; (8.3 µM) 0.68; (25.0 µM) 0.01.

With `CS(=O)(=O)c1ccc(NC(=O)c2cc(Cl)ccc2O)c(Cl)c1` [TVB-1338], the relative infection is given as 0.81 (0.1 µM); 0.81 (0.3 µM); 0.78 (0.9 µM); 0.82 (2.8 µM); 0.78 (8.3 µM).

`O=C(Nc1ccc([N+](=O)[O-])cc1Cl)c1cc(Cl)ccc1OCCOc1ccccc1` [TVB-1329] gave a relative infection (0.1 µM) of 0.99; a relative infection (0.3 µM) of 0.98; a relative infection (0.9 µM) of 1.04; a relative infection (2.8 µM) of 0.99; a relative infection (8.3 µM) of 0.69; a relative infection (25.0 µM) of 0.04.

Take `O=C(Nc1ccc([N+](=O)[O-])cc1Cl)c1ccccc1O` [TVB-1332]: the relative infection reads like this: (0.1 µM) 1.04; (0.3 µM) 1.06; (0.9 µM) 1.04; (8.3 µM) 0.02; (25.0 µM) 0.00.
